Our source for the T/C values is PubChem BioAssay AID330 (DTP/NCI, 2004).

In this experiment the test system is P388 leukemia ip, CD2F1 mice, survival T/C. Description: NCI In Vivo Anticancer Drug Screen. Data for tumor model P388 Leukemia (intraperitoneal) in CD2F1 (CDF1) mice. The following applies: endpoint: median survival time, higher = longer survival. The essentials:
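Mice carrying the transplanted tumor received test compound or vehicle. Survival was recorded in each group, and the value is the treated-group measurement divided by that of the vehicle-treated control group.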

The mark [1] stands for this setting: dose: 25.0 mg/kg/injection, schedule: Q01DX009 (ip), vehicle: saline with Tween-80.
[2] abbreviates: dose: 50.0 mg/kg/injection, schedule: Q01DX009 (ip), vehicle: saline with Tween-80.
Setting [3] is: dose: 100.0 mg/kg/injection, schedule: Q01DX009 (ip), vehicle: saline with Tween-80.
[4] abbreviates: dose: 50.0 mg/kg/injection, schedule: Q01DX005 (ip), vehicle: saline with Tween-80.
The mark [5] stands for this setting: dose: 100.0 mg/kg/injection, schedule: Q01DX005 (ip), vehicle: saline with Tween-80.
[6] abbreviates: dose: 200.0 mg/kg/injection, schedule: Q01DX005 (ip), vehicle: saline with Tween-80.

Several values for one entry are separate records, joined by “and”; a condition that tells them apart may be missing. Equal values may be shown once. Toxic doses and inconclusive results are not listed.

Consider `O=C(COc1ccc(Cl)cc1Cl)N1CCNC1=S`, for which the T/C by setting is: (dose: 50.0 mg/kg/injection, schedule: Q01DX009 (ip), vehicle: Klucel (hydroxypropylcellulose) (HPC)) 100 % of control; (dose: 100.0 mg/kg/injection, schedule: Q01DX009 (ip), vehicle: Klucel (hydroxypropylcellulose) (HPC)) 103 % of control; (dose: 200.0 mg/kg/injection, schedule: Q01DX009 (ip), vehicle: Klucel (hydroxypropylcellulose) (HPC)) 100 % of control.
As for `Cc1cccc(NN=O)n1`, the T/C is, setting by setting: (dose: 1.5 mg/kg/injection, schedule: Q01DX009 (ip), vehicle: water) 98 % of control; (dose: 1.56 mg/kg/injection, schedule: Q01DX009 (ip), vehicle: water) 99 % of control; (dose: 3.0 mg/kg/injection, schedule: Q01DX009 (ip), vehicle: water) 107 % of control; (dose: 3.12 mg/kg/injection, schedule: Q01DX009 (ip), vehicle: water) 115 % of control; (dose: 6.25 mg/kg/injection, schedule: Q01DX009 (ip), vehicle: water) 120 % of control; (dose: 25.0 mg/kg/injection, schedule: Q01DX009 (ip), vehicle: water) 163 % of control.
For `O=[N+]([O-])/C=C/c1cc2c(cc1Cl)OCO2`, the T/C reads like this: (dose: 50.0 mg/kg/injection, schedule: Q01DX005 (ip), vehicle: Klucel (hydroxypropylcellulose) (HPC)) 107 % of control; (dose: 100.0 mg/kg/injection, schedule: Q01DX005 (ip), vehicle: Klucel (hydroxypropylcellulose) (HPC)) 111 % of control; (dose: 200.0 mg/kg/injection, schedule: Q01DX005 (ip), vehicle: Klucel (hydroxypropylcellulose) (HPC)) 95 % of control.
For the compound `Clc1ccc(-n2nnc3cc(Cl)ccc32)c(Cl)c1`, the T/C runs as follows: (dose: 6.25 mg/kg/injection, schedule: Q01DX005 (ip), vehicle: saline with Tween-80) 86 % of control and 96 % of control; (dose: 12.5 mg/kg/injection, schedule: Q01DX005 (ip), vehicle: saline with Tween-80) 94 % of control; (dose: 25.0 mg/kg/injection, schedule: Q01DX005 (ip), vehicle: saline with Tween-80) 90 % of control and 91 % of control; under setting [1], 103 % of control; under setting [2], 97 % of control; under setting [3], 101 % of control.
`O=C(O)c1ccc2cc3ccccc3cc2c1`: the T/C runs as follows: under setting [3], 99 % of control; (dose: 200.0 mg/kg/injection, schedule: Q01DX009 (ip), vehicle: saline with Tween-80) 91 % of control.
Take `NC(=O)c1csc(-c2ccc(CO)o2)n1`: the T/C under setting [4] is 95 % of control and the T/C under setting [5] is 86 % of control.
Regarding `O=c1c2ccccc2oc2nc3cc(Cl)ccc3n12`, the T/C is, setting by setting: under setting [4], 104 % of control; under setting [5], 95 % of control; under setting [6], 98 % of control.
On to `NC(=S)N/N=C/c1ccc(OC(=O)COc2ccccc2)cn1`, for which the T/C is, setting by setting: under setting [1], 171 % of control; under setting [2], 205 % of control; under setting [3], 205 % of control.
With `NC(=O)C1C(C(N)=O)C2C3C=CC(C4C(=O)NC(=O)C34)C12` (stereo not drawn), the T/C runs as follows: (dose: 100.0 mg/kg/injection, schedule: Q04DX002 (ip), vehicle: saline with Tween-80) 102 % of control; (dose: 200.0 mg/kg/injection, schedule: Q04DX002 (ip), vehicle: saline with Tween-80) 109 % of control; (dose: 400.0 mg/kg/injection, schedule: Q04DX002 (ip), vehicle: saline with Tween-80) 111 % of control.
For `CNC(=O)c1n[nH]c(C)c1N`, the T/C (dose: 12.5 mg/kg/injection, schedule: Q04DX003 (ip), vehicle: water) is 94 % of control; the T/C (dose: 25.0 mg/kg/injection, schedule: Q04DX003 (ip), vehicle: water) was 100 % of control; the T/C (dose: 50.0 mg/kg/injection, schedule: Q04DX003 (ip), vehicle: water) was 103 % of control; the T/C (dose: 100.0 mg/kg/injection, schedule: Q04DX003 (ip), vehicle: water) is 103 % of control; the T/C (dose: 200.0 mg/kg/injection, schedule: Q04DX003 (ip), vehicle: water) is 99 % of control.
As to `CC1OC(OC2CCCc3c(O)c4c(c(O)c32)C(=O)c2ccccc2C4=O)CC(N)C1O` (stereo not drawn), the T/C is, setting by setting: (dose: 1.25 mg/kg/injection, schedule: Q04DX002 (ip), vehicle: water) 104 % of control and 106 % of control; (dose: 2.5 mg/kg/injection, schedule: Q04DX002 (ip), vehicle: water) 98 % of control and 111 % of control; (dose: 5.0 mg/kg/injection, schedule: Q04DX002 (ip), vehicle: water) 98 % of control and 106 % of control; (dose: 10.0 mg/kg/injection, schedule: Q04DX002 (ip), vehicle: water) 98 % of control and 106 % of control.
With `CCc1nc(N)nc(N)c1-c1ccc(Cl)c(N=[N+]=[N-])c1`, the T/C reads like this: (dose: 3.13 mg/kg/injection, schedule: Q01DX009 (ip), vehicle: distilled water + Tween-80) 99 % of control; (dose: 6.25 mg/kg/injection, schedule: Q01DX009 (ip), vehicle: distilled water + Tween-80) 102 % of control; (dose: 12.5 mg/kg/injection, schedule: Q01DX009 (ip), vehicle: distilled water + Tween-80) 107 % of control; (dose: 15.0 mg/kg/injection, schedule: Q01DX005 (ip), vehicle: Klucel (hydroxypropylcellulose) (HPC)) 100 % of control; (dose: 25.0 mg/kg/injection, schedule: Q01DX009 (ip), vehicle: distilled water + Tween-80) 110 % of control and 89 % of control; (dose: 30.0 mg/kg/injection, schedule: Q01DX005 (ip), vehicle: Klucel (hydroxypropylcellulose) (HPC)) 108 % of control. The T/C is, setting by setting: (dose: 50.0 mg/kg/injection, schedule: Q01DX009 (ip), vehicle: distilled water + Tween-80) 109 % of control; (dose: 60.0 mg/kg/injection, schedule: Q01DX005 (ip), vehicle: Klucel (hydroxypropylcellulose) (HPC)) 106 % of control and 116 % of control; (dose: 200.0 mg/kg/injection, schedule: Q01DX009 (ip), vehicle: distilled water + Tween-80) 151 % of control.
In the case of `C=C(C)C12CC(C)C34OC(CCCCCCCCCCC)(OC1C3C1OC1(CO)C(O)C1(O)C(=O)C(C)=CC14C)O2` (stereo not drawn), the T/C reads like this: (dose: 0.05 mg/kg/injection, schedule: Q01DX009 (ip), vehicle: distilled water + Tween-80) 99 % of control and 100 % of control; (dose: 0.06 mg/kg/injection, schedule: Q01DX009 (ip), vehicle: other) 100 % of control; (dose: 0.1 mg/kg/injection, schedule: Q01DX009 (ip), vehicle: distilled water + Tween-80) 100 % of control and 96 % of control; (dose: 0.12 mg/kg/injection, schedule: Q01DX009 (ip), vehicle: other) 104 % of control; (dose: 0.2 mg/kg/injection, schedule: Q01DX009 (ip), vehicle: distilled water + Tween-80) 103 % of control and 96 % of control; (dose: 0.4 mg/kg/injection, schedule: Q01DX009 (ip), vehicle: distilled water + Tween-80) 105 % of control and 119 % of control. The T/C reads like this: (dose: 25.0 micrograms/kg/injection, schedule: Q01DX009 (ip), vehicle: other) 112 % of control; (dose: 50.0 micrograms/kg/injection, schedule: Q01DX009 (ip), vehicle: other) 112 % of control.
Turning to `CCN(CC)CC(C)(C)C(=O)/C=C/c1ccc(C)cc1`, the T/C was 103 % of control (dose: 60.0 mg/kg/injection, schedule: Q01DX005 (ip), vehicle: saline); 103 % of control (dose: 120.0 mg/kg/injection, schedule: Q01DX005 (ip), vehicle: saline); 110 % of control (dose: 240.0 mg/kg/injection, schedule: Q01DX005 (ip), vehicle: saline).
For the compound `CN(C)CCCNC1=C(Cl)C(=O)C(NCCCN(C)C)=C(Cl)C1=O`, the T/C by setting is: (dose: 6.25 mg/kg/injection, schedule: Q01DX009 (ip), vehicle: saline) 91 % of control; (dose: 12.5 mg/kg/injection, schedule: Q01DX009 (ip), vehicle: saline) 94 % of control; (dose: 25.0 mg/kg/injection, schedule: Q01DX009 (ip), vehicle: saline) 111 % of control; (dose: 50.0 mg/kg/injection, schedule: Q01DX009 (ip), vehicle: saline) 89 % of control.
As for `O=C(Nc1ccc(Sc2ccc(N=Nc3c(O)c(S(=O)(=O)O)cc4cc(S(=O)(=O)O)ccc34)cc2)cc1)c1ccc(N=Nc2cc(S(=O)(=O)O)c3ccccc3c2O)cc1`, the T/C by setting is: under setting [4], 98 % of control; under setting [5], 102 % of control; under setting [6], 98 % of control.
For `CCN(CC)CCN1c2ccccc2Sc2ccc3ccccc3c21`, the T/C by setting is: (dose: 50.0 mg/kg/injection, schedule: Q01DX005 (ip), vehicle: saline + Tween-80 + alcohol) 107 % of control; (dose: 100.0 mg/kg/injection, schedule: Q01DX005 (ip), vehicle: saline + Tween-80 + alcohol) 105 % of control; (dose: 200.0 mg/kg/injection, schedule: Q01DX005 (ip), vehicle: saline + Tween-80 + alcohol) 102 % of control.
For `CN1CCC(O)CC1=O` (stereo not drawn), the T/C by setting is: under setting [4], 104 % of control; under setting [5], 98 % of control; under setting [6], 101 % of control.
